Measured values: publication PMC12396409, “Screening and hit evaluation of a microbial metabolite library against the pathogenic Plasmodium falciparum and Toxoplasma gondii parasites” (International Journal for Parasitology: Drugs and Drug …, 2025)
Like-named read-outs stand apart in the source and are kept apart here.

Tests used:
[1] = tested on: P. falciparum 3D7 parasites; experiment: P. falciparum growth inhibition assay, 2-cycle (120 h treatment), delayed-death screen and dose-response; format: cell-based, Plasmodium falciparum; conditions: for activity at 2 µg/mL: Plasmodium falciparum, 3D7
[2] = tested on: P. falciparum 3D7 parasites; experiment: P. falciparum growth inhibition assay, 1-cycle (72 h treatment), SYBR DNA staining (library screen at 2 μg/mL and dose-response); format: cell-based, Plasmodium falciparum; conditions: for activity at 2 µg/mL: Plasmodium falciparum, 3D7
[3] = tested on: T. gondii RH strain (RH-Tub-eYFP) tachyzoites; experiment: microbe, parasite or virus in culture; format: cell-based, Toxoplasma gondii; conditions: 72 h; for percent parasite growth at 2 µg/mL: Toxoplasma gondii
[4] = library screen at 2 μg/mL, 120 h, % growth, replicate 1, read-out: Pf_120h_%Growth_Rep1
[5] = library screen at 2 μg/mL, 120 h, % growth, replicate 2, read-out: Pf_120h_%Growth_Rep2
[6] = library screen at 2 μg/mL, 72 h, % growth, replicate 1, read-out: Pf_72h_%Growth_Rep1
[7] = library screen at 2 μg/mL, 72 h, % growth, replicate 2, read-out: Pf_72h_%Growth_Rep2
[8] = library screen at 2 μg/mL, % growth, replicate 1, read-out: Tg_72h_%Growth_Rep1
[9] = library screen at 2 μg/mL, % growth, replicate 2, read-out: Tg_72h_%Growth_Rep2
[10] = P. falciparum, 120 h, parasite screen 2 μg/mL, % growth, replicate 1
[11] = P. falciparum, 120 h, parasite screen 2 μg/mL, % growth, replicate 2
[12] = P. falciparum, 72 h, parasite screen 2 μg/mL, % growth, replicate 1
[13] = P. falciparum, 72 h, parasite screen 2 μg/mL, % growth, replicate 2
[14] = T. gondii, parasite screen 2 μg/mL, % growth, replicate 1
[15] = T. gondii, parasite screen 2 μg/mL, % growth, replicate 2

CCC1OC2(CCC1C)CC1CC(CC=C(C)CC(C)C=CC=C3COC4C(=NO)C(C)=CC(C(=O)O1)C34O)O2 (stereo not drawn) [BIA-M1532]
Pf_120h_%Growth_Rep1 ([1]; P. falciparum 3D7, 120 h, parasite screen at 2 μg/mL, % growth, replicate 1): 8.04% | Pf_120h_%Growth_Rep2 ([1]; P. falciparum 3D7, 120 h, parasite screen at 2 μg/mL, % growth, replicate 2): 16.57% | Pf_72h_%Growth_Rep1 ([2]; P. falciparum 3D7, 72 h, parasite screen at 2 μg/mL, % growth, replicate 1): 26.87% | Pf_72h_%Growth_Rep2 ([2]; P. falciparum 3D7, 72 h, parasite screen at 2 μg/mL, % growth, replicate 2): 18.08% | Tg_72h_%Growth_Rep1 ([3]; T. gondii, parasite screen at 2 μg/mL, % growth, replicate 1): 83.72% | Tg_72h_%Growth_Rep2 ([3]; T. gondii, parasite screen at 2 μg/mL, % growth, replicate 2): 81.98%

O=c1c(-c2ccc(O)cc2)coc2cc(O)cc(O)c12 [Genistein]
activity at 2 µg/mL [1, 4]: 89.5% | activity at 2 µg/mL [1, 5]: 111% | activity at 2 µg/mL [2, 6]: 88.5% | activity at 2 µg/mL [2, 7]: 42.1% | percent parasite growth at 2 µg/mL [3, 8]: 80.3% | percent parasite growth at 2 µg/mL [3, 9]: 72.4%

CC(/C=C/[C@H](O)[C@@H](C)/C=C/C(=O)O)=C\C[C@H]1O[C@]2(CC[C@@H]1C)CC[C@@](CCC(C)C)(OC(=O)CCC(=O)O)[C@H](/C=C/C(C)=C/C(=O)O)O2 [Reveromycin C]
Pf_120h_%Growth_Rep1 [1, 10]: 71.01% | Pf_120h_%Growth_Rep2 [1, 11]: 60.10% | Pf_72h_%Growth_Rep1 [2, 12]: 86.43% | Pf_72h_%Growth_Rep2 [2, 13]: 70.33% | Tg_72h_%Growth_Rep1 [3, 14]: 140.65% | Tg_72h_%Growth_Rep2 [3, 15]: 73.99%

CC(=O)C1=C(O)C=C2Oc3c(C(N)=O)c(O)cc(O)c3[C@]2(C)C1=O [Cercosporamide]
Pf_120h_%Growth_Rep1 ([1]; P. falciparum, 120 h, screen at 2 μg/mL, replicate 1): 127.36% | Pf_120h_%Growth_Rep2 ([1]; P. falciparum, 120 h, screen at 2 μg/mL, replicate 2): 89.41% | Pf_72h_%Growth_Rep1 ([2]; P. falciparum, 72 h, screen at 2 μg/mL, replicate 1): 93.73% | Pf_72h_%Growth_Rep2 ([2]; P. falciparum, 72 h, screen at 2 μg/mL, replicate 2): 83.00% | Tg_72h_%Growth_Rep1 ([3]; T. gondii, screen at 2 μg/mL, replicate 1): 84.28% | Tg_72h_%Growth_Rep2 ([3]; T. gondii, screen at 2 μg/mL, replicate 2): 89.90%

C[C@@]1(CO)[C@H](O)CC[C@@]2(C)[C@H]1CC[C@H]1C[C@@H]3C[C@@]12CC[C@]3(O)CO [Aphidicolin]
activity at 2 µg/mL [1, 4]: 10.5% | activity at 2 µg/mL [1, 5]: -6.36% | activity at 2 µg/mL [2, 6]: 7% | activity at 2 µg/mL [2, 7]: 4.32% | percent parasite growth at 2 µg/mL [3, 8]: 1.91% | percent parasite growth at 2 µg/mL [3, 9]: 0.58%

NC(=O)C=Cc1ccccc1 [Cinnamamide]
activity at 2 µg/mL ([1]; P. falciparum, 120 h, screen at 2 μg/mL, replicate 1, read-out: Pf_120h_%Growth_Rep1): 152% | activity at 2 µg/mL ([1]; P. falciparum, 120 h, screen at 2 μg/mL, replicate 2, read-out: Pf_120h_%Growth_Rep2): 94.1% | activity at 2 µg/mL ([2]; P. falciparum, 72 h, screen at 2 μg/mL, replicate 1, read-out: Pf_72h_%Growth_Rep1): 95% | activity at 2 µg/mL ([2]; P. falciparum, 72 h, screen at 2 μg/mL, replicate 2, read-out: Pf_72h_%Growth_Rep2): 81.9% | percent parasite growth at 2 µg/mL ([3]; read-out: Tg_72h_%Growth_Rep1): 85.6% | percent parasite growth at 2 µg/mL ([3]; read-out: Tg_72h_%Growth_Rep2): 87.3%

CCO[C@@H]1[C@@H](OC)[C@H](C)O[C@@H](O[C@H]2C[C@H]3[C@@H]4C=C5C(=O)[C@H](C)[C@@H](O[C@H]6CC[C@H](N(C)C)[C@@H](C)O6)CCC[C@H](CC)OC(=O)C[C@H]5[C@@H]4C=C(C)[C@@H]3C2)[C@@H]1OC [spinosyn L, 3'-Ethoxy-]
Pf_120h_%Growth_Rep1 [1, 10]: 13.87% | Pf_120h_%Growth_Rep2 [1, 11]: 7.84% | Pf_72h_%Growth_Rep1 [2, 12]: 10.02% | Pf_72h_%Growth_Rep2 [2, 13]: -2.72% | Tg_72h_%Growth_Rep1 [3, 14]: 142.09% | Tg_72h_%Growth_Rep2 [3, 15]: 79.71%

Enniatin A1
Pf_120h_%Growth_Rep1 ([1]; library screen at 2 μg/mL, 120 h, % growth, replicate 1): 8.66% | Pf_120h_%Growth_Rep2 ([1]; library screen at 2 μg/mL, 120 h, % growth, replicate 2): 18.71% | Pf_72h_%Growth_Rep1 ([2]; library screen at 2 μg/mL, 72 h, % growth, replicate 1): 5.31% | Pf_72h_%Growth_Rep2 ([2]; library screen at 2 μg/mL, 72 h, % growth, replicate 2): 1.97% | Tg_72h_%Growth_Rep1 ([3]; library screen at 2 μg/mL, % growth, replicate 1): -0.69% | Tg_72h_%Growth_Rep2 ([3]; library screen at 2 μg/mL, % growth, replicate 2): 13.13%
